Test results from patent US20250312323A1 (Cavion, Inc., priority 2018, published 2025).

Experiments:
Type in all cases: in vivo, human
[1] = tested on: patients with essential tremor; experiment: T-CALM: TETRAS total score
Description: The Total TETRAS score was defined as the sum of the TETRAS performance subscale total score and the TETRAS ADL subscale score. TETRAS TOTAL score combines both patient reported outcome and objective measurement of tremor amplitude in a single score. Analyses of the TETRAS-ADL was conducted using the same type of ANCOVA model as described for the TETRAS-PS, using two-sided tests at the alpha=0.05 level of significance (FIG. 3 and Table 3).
Both sets of scores were statistically analyzed.

[2] = tested on: patients with essential tremor; experiment: T-CALM: Patient Global Impression of Change (PGIC); conditions: for PGIC score (rescaled −3 to 3), LS mean (SE): ANCOVA
Description: Treatment success as measured by PGIC was summarized using descriptive statistics.
The Patient Global Impression of Change (PGIC) will quantify a patient's impression of improvement or decline over time with respect to ET treatment (see, e.g., Guy, Assessment Mantal for Psychopharmacology. Rockville, MD: Department of Health, Education, and Welfare Public Health Service Alcohol, Drug Abuse, and Mental Health Administration, 1976). The patient will use the PGIC scale to assess current health status versus initiation of treatment and calculate the difference.

[3] = Pharmacokinetics of CX-8998 immediate release capsules in healthy volunteers (Studies PN001, PN002); conditions: 2-18 mg dose range
[4] = Day 15, change from baseline, N = 39
[5] = Day 28, change from baseline, N = 37

CC(C)c1ccc(CC(=O)N[C@H](C)c2ccc(OCC(F)(F)F)cn2)cc1 [CX-8998]
Subjects with improvement of at least 5 points by TETRAS Total score, number ([1]; Day 15, N 39): 22
TETRAS Total Score, subjects with 0 change, n (%) [1, 4]: 1 (2.6%)
TETRAS Total Score, subjects with >0 to 1 point improvement, n (%) [1, 4]: 2 (5.1%)
TETRAS Total Score, subjects with >0 to 1 point worsening, n (%) [1, 4]: 2 (5.1%)
TETRAS Total Score, subjects with >1 to 2.5 point improvement, n (%) [1, 4]: 2 (5.1%)
TETRAS Total Score, subjects with >1 to 2.5 point worsening, n (%) [1, 4]: 1 (2.6%)
TETRAS Total Score, subjects with >2.5 to 5 point improvement, n (%) [1, 4]: 7 (17.9%)
TETRAS Total Score, subjects with >2.5 to 5 point worsening, n (%) [1, 4]: 4 (10.3%)
TETRAS Total Score, subjects with >5 to 10 point improvement, n (%) [1, 4]: 6 (15.4%)
TETRAS Total Score, subjects with >5 to 10 point worsening, n (%) [1, 4]: 0
TETRAS Total Score, subjects with >10 point worsening, n (%) [1, 4]: 0
TETRAS Total Score, subjects with >10 to 20 point improvement, n (%) [1, 4]: 12 (30.8%)
TETRAS Total Score, subjects with >20 point improvement, n (%) [1, 4]: 2 (5.1%)
total TETRAS score with TETRAS-PS rated by independent video raters, vs placebo ([1]; Day 15 or 28): not statistically significant
Subjects with improvement of at least 5 points by TETRAS Total score, number ([1]; Day 28, N 37): 21
TETRAS Total Score, subjects with 0 change, n (%) [1, 5]: 0
TETRAS Total Score, subjects with >0 to 1 point improvement, n (%) [1, 5]: 2 (5.4%)
TETRAS Total Score, subjects with >0 to 1 point worsening, n (%) [1, 5]: 4 (10.8%)
TETRAS Total Score, subjects with >1 to 2.5 point improvement, n (%) [1, 5]: 2 (5.4%)
TETRAS Total Score, subjects with >1 to 2.5 point worsening, n (%) [1, 5]: 2 (5.4%)
TETRAS Total Score, subjects with >2.5 to 5 point improvement, n (%) [1, 5]: 5 (13.5%)
TETRAS Total Score, subjects with >2.5 to 5 point worsening, n (%) [1, 5]: 1 (2.7%)
TETRAS Total Score, subjects with >5 to 10 point improvement, n (%) [1, 5]: 7 (18.9%)
TETRAS Total Score, subjects with >5 to 10 point worsening, n (%) [1, 5]: 0
TETRAS Total Score, subjects with >10 point worsening, n (%) [1, 5]: 0
TETRAS Total Score, subjects with >10 to 20 point improvement, n (%) [1, 5]: 8 (21.6%)
TETRAS Total Score, subjects with >20 point improvement, n (%) [1, 5]: 5 (13.5%)
PGIC Category 0 No change, patients, number (%) ([2]; Day 15): 11 (28%)
PGIC Category 1 Minimally improved, patients, number (%) ([2]; Day 15): 17 (44%)
PGIC Category 2 Much improved, patients, number (%) ([2]; Day 15): 8 (21%)
PGIC Category 3 Very much improved, patients, number (%) ([2]; Day 15): 1 (3%)
PGIC Category −1 Minimally worse, patients, number (%) ([2]; Day 15): 1 (3%)
PGIC Category −2 Much worse, patients, number (%) ([2]; Day 15): 1 (3%)
PGIC Category −3 Very much worse, patients, number (%) ([2]; Day 15): 0
mean PGIC score vs placebo ([2]; Day 15): significantly greater (improved)
PGIC Score, subjects 0 - no change, n (%) ([2]; Day 15, N = 39): 11 (28%)
PGIC Score, subjects 1 - minimally improved, n (%) ([2]; Day 15, N = 39): 17 (44%)
PGIC Score, subjects 2 - much improved, n (%) ([2]; Day 15, N = 39): 8 (21%)
PGIC Score, subjects 3 - very much improved, n (%) ([2]; Day 15, N = 39): 1 (3%)
PGIC Score, subjects −1 - minimally worse, n (%) ([2]; Day 15, N = 39): 1 (3%)
PGIC Score, subjects −2 - much worse, n (%) ([2]; Day 15, N = 39): 1 (3%)
PGIC Score, subjects −3 - very much worse, n (%) ([2]; Day 15, N = 39): 0
PGIC score (rescaled −3 to 3), LS mean (SE) ([2]; Day 15): 0.9 (0.17)
PGIC Category 0 No change, patients, number (%) ([2]; Day 28): 14 (36%)
PGIC Category 1 Minimally improved, patients, number (%) ([2]; Day 28): 10 (26%)
PGIC Category 2 Much improved, patients, number (%) ([2]; Day 28): 7 (18%)
PGIC Category 3 Very much improved, patients, number (%) ([2]; Day 28): 3 (8%)
PGIC Category −1 Minimally worse, patients, number (%) ([2]; Day 28): 1 (3%)
PGIC Category −2 Much worse, patients, number (%) ([2]; Day 28): 1 (3%)
PGIC Category −3 Very much worse, patients, number (%) ([2]; Day 28): 1 (3%)
mean PGIC score vs placebo ([2]; Day 28): trended toward significant improvement
PGIC Score, subjects 0 - no change, n (%) ([2]; Day 28, head N = 39): 14 (36%)
PGIC Score, subjects 1 - minimally improved, n (%) ([2]; Day 28, head N = 39): 10 (26%)
PGIC Score, subjects 2 - much improved, n (%) ([2]; Day 28, head N = 39): 7 (18%)
PGIC Score, subjects 3 - very much improved, n (%) ([2]; Day 28, head N = 39): 3 (8%)
PGIC Score, subjects −1 - minimally worse, n (%) ([2]; Day 28, head N = 39): 1 (3%)
PGIC Score, subjects −2 - much worse, n (%) ([2]; Day 28, head N = 39): 1 (3%)
PGIC Score, subjects −3 - very much worse, n (%) ([2]; Day 28, head N = 39): 1 (3%)
PGIC score (rescaled −3 to 3), LS mean (SE) ([2]; Day 28): 0.8 (0.19)
dose proportionality of plasma profiles [3]: dose proportional
